Measured values as given in ChEMBL document CHEMBL4177630, “Discovery and evaluation of Cav3.2-selective T-type calcium channel blockers” (Bioorg Med Chem Lett, 2017).
Converted amounts (≈) assume the structure as drawn.

What was measured:
[1] = Aqueous solubility of the compound at pH 7; assay type: physicochemical
[2] = Drug level in Wistar rat brain at 100 mg/kg, po measured after 1 hr; assay type: ADME, organism-based; settings: read-out: Drug uptake
[3] = Intrinsic clearance in rat liver microsomes; assay type: ADME, microsome; settings: read-out: CLH
[4] = Plasma concentration in Wistar rat at 100 mg/kg, po measured after 1 hr; assay type: ADME, organism-based
[5] = Fraction unbound in Wistar rat plasma at 100 mg/kg, po measured after 1 hr; assay type: ADME, organism-based; settings: in vivo
[6] = Drug level in Wistar rat CSF at 100 mg/kg, po measured after 1 hr; assay type: ADME, organism-based, Cerebrospinal fluid; settings: read-out: Drug uptake
[7] = Fraction unbound in Wistar rat plasma at 10 mg/kg, po measured after 1 hr; assay type: ADME, organism-based; settings: in vivo
[8] = Drug level in Wistar rat CSF at 10 mg/kg, po measured after 1 hr; assay type: ADME, organism-based, Cerebrospinal fluid; settings: read-out: Drug uptake
[9] = Plasma concentration in Wistar rat at 10 mg/kg, po measured after 1 hr; assay type: ADME, organism-based
[10] = Drug level in Wistar rat brain at 10 mg/kg, po measured after 1 hr; assay type: ADME, organism-based; settings: read-out: Drug uptake

In the case of `CC(C)OCc1ccccc1CNC(=O)c1c2c(c(Cl)n1C)CC(C)(C)CC2`, the solubility [1] was less than 1 µg/mL, the concentration at 1 h [2] was 436 nM and the microsomal CLint [3] was greater than 1250 µL/min/mg. For the same molecule, the concentration at 1 h [4] was 397 nM, the “Cp(f)” value [5] was less than 0.4 nM and the concentration at 1 h [6] was less than 0.7 nM.
Molecule `Cn1c(Cl)c2c(c1C(=O)NCc1ccncc1OCC(F)(F)F)CCC(C)(C)C2` has a solubility [1] of 1 µg/mL (≈ 2.33 µM), a concentration at 1 h [2] of 12100 nM and a microsomal CLint [3] of 645 µL/min/mg. For the same molecule, the concentration at 1 h [4] was 5210 nM, the “Cp(f)” value [5] was 5.2 nM and the concentration at 1 h [6] was 23 nM.
For `Cn1c(Cl)c2c(c1C(=O)NCc1ncccc1N1CC[C@H](F)C1)CCC(C)(C)C2`, the solubility [1] was less than 1 µg/mL.
With `Cn1c(Cl)c2c(c1C(=O)NCc1cccnc1OCC(F)(F)F)CCC(C)(C)C2` the solubility [1] was less than 1 µg/mL, the “Cp(f)” value [7] was less than 0.35 nM and the microsomal CLint [3] was 420 µL/min/mg. It also gave a concentration at 1 h [8] of 6 nM, a concentration at 1 h [9] of 353 nM and a concentration at 1 h [10] of 4720 nM.
`Cc1onc(CNC(=O)c2c3c(c(Cl)n2C)CC(C)(C)CC3)c1Cn1cccn1` showed a solubility [1] of 7 µg/mL (≈ 16.8 µM), a concentration at 1 h [2] of 1020 nM and a microsomal CLint [3] greater than 1250 µL/min/mg. The concentration at 1 h [4] was 530 nM, the “Cp(f)” value [5] was 1.6 nM and the concentration at 1 h [6] was 17 nM.
